The values that follow come from paper PMC11062575 (Science Advances, 2024).

In one experiment the target is human TRPV3 C496A mutant (Homo sapiens, UniProt Q8NET8, C496A). The following applies: C496A vs wild type.
Another experiment has as its system mouse TRPV3 Y564A. The following applies: mouse TRPV3 Y564A vs wild type; cited from earlier work.
The target of another experiment is T1, human TRPV3 L557A mutant (Homo sapiens, UniProt Q8NET8, L557A).
T1 sequence (Q8NET8 1-791 isoform Q8NET8-2 L557A): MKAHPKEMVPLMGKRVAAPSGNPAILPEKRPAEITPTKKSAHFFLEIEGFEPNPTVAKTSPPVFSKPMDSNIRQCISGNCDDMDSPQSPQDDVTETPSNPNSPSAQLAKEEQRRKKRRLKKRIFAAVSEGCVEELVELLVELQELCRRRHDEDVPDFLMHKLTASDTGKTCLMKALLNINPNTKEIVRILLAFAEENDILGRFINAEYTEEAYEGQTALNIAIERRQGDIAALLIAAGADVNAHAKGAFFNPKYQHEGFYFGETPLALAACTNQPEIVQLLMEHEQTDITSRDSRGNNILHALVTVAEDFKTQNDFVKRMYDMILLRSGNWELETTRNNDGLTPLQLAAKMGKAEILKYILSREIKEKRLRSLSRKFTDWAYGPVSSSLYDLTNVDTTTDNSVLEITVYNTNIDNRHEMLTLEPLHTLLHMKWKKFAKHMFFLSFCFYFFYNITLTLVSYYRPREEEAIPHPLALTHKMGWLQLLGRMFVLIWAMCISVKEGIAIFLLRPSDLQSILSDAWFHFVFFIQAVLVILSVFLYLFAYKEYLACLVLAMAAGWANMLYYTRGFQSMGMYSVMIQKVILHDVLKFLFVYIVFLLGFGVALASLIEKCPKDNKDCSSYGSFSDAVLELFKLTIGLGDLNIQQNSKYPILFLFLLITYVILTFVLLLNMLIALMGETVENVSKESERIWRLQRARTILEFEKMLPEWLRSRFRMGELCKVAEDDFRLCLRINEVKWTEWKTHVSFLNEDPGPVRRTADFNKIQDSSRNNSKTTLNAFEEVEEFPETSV
As to the kind of experiment: Fura-2AM Ca2+ uptake measurements, L557A mutant. In kind it is cell-based.

Another experiment has as its target T2, wild-type human TRPV3 (Homo sapiens, UniProt Q8NET8).
T2 sequence (Q8NET8 1-791 isoform Q8NET8-2): T1 sequence (Q8NET8 1-791 isoform Q8NET8-2 L557A) with A557L
As to the kind of experiment: Fura-2AM ratiometric Ca2+ uptake measurements, wild-type TRPV3. Format: cell-based.

Changes are numbered by the printed parent chain.

Sequence of human TRPV3 C496A mutant (Q8NET8 1-791 isoform Q8NET8-2 C496A): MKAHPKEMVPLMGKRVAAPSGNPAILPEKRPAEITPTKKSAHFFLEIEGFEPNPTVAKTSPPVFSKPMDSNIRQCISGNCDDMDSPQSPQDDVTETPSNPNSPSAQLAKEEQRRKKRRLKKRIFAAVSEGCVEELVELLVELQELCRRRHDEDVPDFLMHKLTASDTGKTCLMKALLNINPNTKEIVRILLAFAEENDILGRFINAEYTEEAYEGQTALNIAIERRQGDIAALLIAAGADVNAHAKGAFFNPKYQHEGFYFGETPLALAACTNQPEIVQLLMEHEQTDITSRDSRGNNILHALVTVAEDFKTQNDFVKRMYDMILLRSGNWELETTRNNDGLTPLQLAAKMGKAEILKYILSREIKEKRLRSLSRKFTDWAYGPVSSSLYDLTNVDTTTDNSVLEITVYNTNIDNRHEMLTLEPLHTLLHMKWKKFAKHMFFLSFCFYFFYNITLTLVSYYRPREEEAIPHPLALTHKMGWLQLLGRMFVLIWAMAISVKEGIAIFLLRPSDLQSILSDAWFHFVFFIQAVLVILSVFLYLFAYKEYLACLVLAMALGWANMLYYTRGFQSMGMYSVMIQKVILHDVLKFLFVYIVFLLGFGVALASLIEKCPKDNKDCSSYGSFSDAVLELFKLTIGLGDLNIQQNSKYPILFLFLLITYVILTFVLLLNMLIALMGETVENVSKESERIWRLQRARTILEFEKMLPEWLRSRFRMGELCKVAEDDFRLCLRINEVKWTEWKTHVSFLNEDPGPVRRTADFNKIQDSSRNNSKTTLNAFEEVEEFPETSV

On to `NCCOB(c1ccccc1)c1ccccc1` [2-APB, 2-aminoethoxydiphenylborane], for which, on human TRPV3 C496A mutant, the “activating potency enhanced compared to wild-type TRPV3” value is given as ~ 3 fold. Also, the “increase in 2-APB potency on Y564 substitution with alanine” value in the experiment on mouse TRPV3 Y564A was 20 fold.

Regarding `CCCc1cc(O)c2c(c1)OC(C)(C)[C@@H]1CCC(C)=C[C@@H]21` [THCV, tetrahydrocannabivarin], the EC50 (as a rule, the concentration needed to bring the measured effect to its halfway point) worked out at 0.081 ± 0.001 µM on human TRPV3 L557A mutant and 6.1 ± 0.5 µM at wild-type human TRPV3. Also, the “maximum absolute value of the fluorescence intensity ratio (F340/F380)” value was 5.58 ± 0.47 at human TRPV3 L557A mutant (L557A, n = 3, P = 0.61 vs wild type) and 5.29 ± 0.04 on wild-type human TRPV3 (wild type, n = 3).
